From patent US20070219203A1, “Arylalkylamino-substituted quinazoline analogues” (Neurogen Corporation, priority 2004, published 2007)
pIC50: −log10 of the molar value.

Target: T1, human capsaicin receptor (Homo sapiens, UniProt Q8NER1)
T1 construct: expressed in transfected cells
Assay: Calcium mobilization assay, antagonist activity (Example 6)
Assay type: cell-based
Conditions: Table II; 50% decrease in fluorescence response of cells expressing human capsaicin receptor exposed to capsaicin
In short: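 Stable HEK293 clones expressing full-length human receptor, loaded with Fluo-3 in KRH buffer pH 7.4. Test compounds at 1 μM to 5 μM final preincubated 0.5 to 6 hours at room temperature, then challenged with capsaicin at its EC50; IC50 is 50% decrease in FLIPR calcium response.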

T1 sequence (Q8NER1 whole entry): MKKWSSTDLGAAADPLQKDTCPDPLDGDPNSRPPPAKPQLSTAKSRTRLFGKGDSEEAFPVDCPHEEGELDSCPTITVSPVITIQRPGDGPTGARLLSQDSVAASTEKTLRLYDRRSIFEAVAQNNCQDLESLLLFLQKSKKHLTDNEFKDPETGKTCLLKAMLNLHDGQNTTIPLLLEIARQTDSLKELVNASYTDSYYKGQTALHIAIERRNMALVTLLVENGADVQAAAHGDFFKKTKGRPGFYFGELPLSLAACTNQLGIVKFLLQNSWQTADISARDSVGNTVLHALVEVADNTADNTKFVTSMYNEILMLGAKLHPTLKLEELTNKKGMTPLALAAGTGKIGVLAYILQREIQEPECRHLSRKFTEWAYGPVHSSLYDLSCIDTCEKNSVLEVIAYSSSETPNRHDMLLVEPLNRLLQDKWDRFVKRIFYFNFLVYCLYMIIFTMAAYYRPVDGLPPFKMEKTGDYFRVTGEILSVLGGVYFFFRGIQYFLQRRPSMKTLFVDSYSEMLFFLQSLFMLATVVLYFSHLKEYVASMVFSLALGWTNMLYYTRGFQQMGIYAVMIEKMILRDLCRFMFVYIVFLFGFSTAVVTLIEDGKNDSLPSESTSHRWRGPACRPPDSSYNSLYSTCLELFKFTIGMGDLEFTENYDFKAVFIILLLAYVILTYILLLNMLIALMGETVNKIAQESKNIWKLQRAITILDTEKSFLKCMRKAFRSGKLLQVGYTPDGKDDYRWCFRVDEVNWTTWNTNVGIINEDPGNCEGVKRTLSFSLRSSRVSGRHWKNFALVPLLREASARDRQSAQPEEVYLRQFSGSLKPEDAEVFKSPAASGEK

pIC50 | SMILES
≥ 6.00 | C=C(C)CN(CC)Cc1nc(NCCc2ccccc2C)c2ccc(-c3ncccc3C(F)(F)F)cc2n1 [Compound 155, [2-{[Ethyl-(2-methyl-allyl)-amino]-methyl}-7-(3-trifluoromethyl-pyridin-2-yl)-quinazolin-4-yl]-(2-o-tolyl-ethyl)-amine]
≥ 6.00 | Cc1ccccc1CCNc1nc(CN(C)C2CCCCC2)nc2cc(-c3ncccc3C(F)(F)F)ccc12 [Compound 158, [2-[(Cyclohexyl-methyl-amino)-methyl]-7-(3-trifluoromethyl-pyridin-2-yl)-quinazolin-4-yl]-(2-o-tolyl-ethyl)-amine]
≥ 6.00 | CCN(Cc1nc(NCCc2ccccc2C)c2ccc(-c3ncccc3C(F)(F)F)cc2n1)C1CCCCC1 [Compound 164, [2-[(Cyclohexyl-ethyl amino)-methyl]-7-(3-trifluoromethyl-pyridin-2-yl)-quinazolin-4-yl]-(2-o-tolyl-ethyl)-amine]
≥ 6.00 | COCCN(CCOC)Cc1nc(NCCc2ccccc2C)c2ccc(-c3ncccc3C(F)(F)F)cc2n1 [Compound 168, [2-{[Bis-(2-methoxy-ethyl)-amino]-methyl}-7-(3 trifluoromethyl-pyridin-2-yl)-quinazolin-4-yl]-(2-o-tolyl-ethyl)-amine]
≥ 6.00 | CCCCCN(CCCCC)Cc1nc(NCCc2ccccc2C)c2ccc(-c3ncccc3C(F)(F)F)cc2n1 [Compound 171, [2-Dipentylaminomethyl-7-(3-trifluoromethyl-pyridin-2-yl)-quinazolin-4-yl]-(2-o-tolyl-ethyl)-amine]
≥ 6.00 | CCCCCN(CCCCC)Cc1nc(NCCc2ccccc2Cl)c2ccc(-c3ncccc3C(F)(F)F)cc2n1 [Compound 172, [2-(2-Chloro-phenyl)-ethyl]-[2-dipentylaminomethyl-7-(3-trifluoromethyl-pyridin-2-yl)-quinazolin-4-yl]-amine]
≥ 6.00 | CCCCCCN(CCCCCC)Cc1nc(NCCc2ccccc2)c2ccc(-c3ncccc3C(F)(F)F)cc2n1 [Compound 173, [2-Dihexylaminomethyl-7-(3-trifluoromethyl-pyridin-2-yl)-quinazolin-4-yl]-phenethyl-amine]
≥ 6.00 | CCCCCCN(CCCCCC)Cc1nc(NCCc2ccccc2C)c2ccc(-c3ncccc3C(F)(F)F)cc2n1 [Compound 174, [2-Dihexylaminomethyl-7-(3-trifluoromethyl-pyridin-2-yl)-quinazolin-4-yl]-(2-o-tolyl-ethyl)-amine]
≥ 6.00 | CCCCCCN(CCCCCC)Cc1nc(NCCc2ccccc2Cl)c2ccc(-c3ncccc3C(F)(F)F)cc2n1 [Compound 175, [2-(2-Chloro-phenyl)-ethyl]-[2-dihexylaminomethyl-7-(3-trifluoromethyl-pyridin-2-yl)-quinazolin-4-yl]-amine]
≥ 6.00 | CC1CC(C)CN(Cc2nc(NCCc3ccccc3)c3ccc(-c4ncccc4C(F)(F)F)cc3n2)C1 (stereo not drawn) [Compound 176, [2-(3,5-Dimethyl-piperidin-1-ylmethyl)-7-(3-trifluoromethyl-pyridin-2-yl)-quinazolin-4-yl]-phenethyl-amine]
≥ 6.00 | Cc1ccccc1CCNc1nc(CN2CC(C)CC(C)C2)nc2cc(-c3ncccc3C(F)(F)F)ccc12 (stereo not drawn) [Compound 177, [2-(3,5-Dimethyl-piperidin-1-ylmethyl)-7-(3-trifluoromethyl-pyridin-2-Yl)-quinazolin-4-yl]-(2-o-tolyl-ethyl)-amine]
≥ 6.00 | CC1CC(C)CN(Cc2nc(NCCc3ccccc3Cl)c3ccc(-c4ncccc4C(F)(F)F)cc3n2)C1 (stereo not drawn) [Compound 178, [2-(2-Chloro-phenyl)-ethYl]-[2-(3,5-dimethyl-piperidin-1-ylmethyl)-7-(3-trifluoromethyl-pyridin-2-yl)-quinazolin-4-yl]-amine]
